According to PMC12126322, “Characterisation of the thermophilic P450 CYP116B305 identified using metagenomics-derived sequence data from an Australian hot spring” (Applied Microbiology and Biotechnology, 2025):
Blank lines part the entries; values can stand above or below the molecule they belong to.

Columns and labels:
[1] = target: CYP116B305; test: Substrate binding by UV-visible difference spectroscopy (KD, heme spin-state shift); parameters: species or system Geminicoccaceae; details: for Kd: difference spectroscopy, CYP116B305 2–4 µM, substrate 0–100 µM; for Spin-state shift (%): low-spin to high-spin heme shift on substrate binding
[2] = test system: CYP116B305; test: In vitro catalytic turnovers and coupling efficiency (GC-MS); assay type: biochemical, Geminicoccaceae; details: for Coupling (NADPH): product formed to NADPH consumed
Experimental: The reaction mixtures contained CYP116B305 (1 µM) in KPi buffer (50 mM, pH 7.4), catalase (1 µM), substrate (600 µM), and NAD(P)H (1.2 mM). Reactions were conducted at both room temperature (25 °C) and elevated temperature (45 °C) under constant stirring for 1 h. A control reaction, omitting the P450 enzyme, was also performed. Post-incubation, reaction mixtures were acidified to pH 0–2 with HCl (except for 4-methoxyacetophenone assays), followed by extraction with ethyl acetate (3 × 1 mL). The combined organic phases were dried over magnesium sulphate and concentrated to 100 µL under a stream of nitrogen gas. Concentrated samples were derivatised with N,O-bis(trimethylsilyl)trifluoroacetamide (BSTFA-TMS) before being analysed by gas chromatography–mass spectrometry (GC–MS; Zebron ZB-5MS column 30 m × 0.25 mm × 0.25 µm). The method was 50 °C for 5 min followed by increments of 16 °C min^−1 until 250 °C was reached, then held for 5 min.
For coupling efficiency analysis, the NAD(P)H concentration was reduced to 200 µM, and an internal standard (100 µM) was added to the reactions prior to acidification and extraction. […] In the case of 4-methoxyacetophenone, the reactions were stirred for 2 h, and product formation (4-hydroxyacetophenone) was then quantified using a standard curve generated from 4-hydroxyacetophenone (0.05–1 mM) and an internal standard (fluorene; 100 µM).

[3] = test system: CYP116B305; test: NAD(P)H consumption assay (cofactor preference, oxidation rates); assay type: biochemical, Geminicoccaceae; details: for NADH consumption rates / NADPH consumption rates: 33% FMN inclusion, min^−1; for NADH consumption rates (100% FMN rates) / NADPH consumption rates (100% FMN rates): corresponding to full FMN incorporation, approximate maximum; for Km: cofactor oxidation in the presence of 2-HPA, read-out: KM of nicotinamide cofactor
Experimental: The consumption rates were calculated using nonlinear regression (GraphPad Prism), fitting to either the Michaelis–Menten or a quadratic velocity equation to determine the apparent KM and kcat values.

[4] = test system: CYP116B305; test: Cytochrome c reduction assay with NADPH as electron donor; assay type: biochemical, Geminicoccaceae; details: cytochrome c as artificial electron acceptor
Experimental: Similarly, a cytochrome c reduction assay was also performed to derive the kinetic parameters, following established protocols (Guengerich et al. [2009]; Tavanti et al. [2018b]). Reactions contained cytochrome c (equine heart, Sigma-Aldrich, 50 µM), CYP116B305 (200 nM), catalase (1 µM), and varying concentrations of NADPH (0.5–200 µM). Cytochrome c reduction was monitored as described above, and nonlinear regression analysis (GraphPad Prism) was utilised to determine the KM and kcat values.

[5] = in the presence of 2-HPA, 25 °C

Kd [1]: 61 ± 19 µM
Spin-state shift (%) [1]: 13 ± 4%
Spin-state shift (%) ([1]; listed as trans-cinnamic acid): 13 ± 4%
Compound: O=C(O)/C=C/c1ccccc1 [trans-Cinnamic acid]

Kd [1]: 65 ± 13 µM
Spin-state shift (%) [1]: 17 ± 1%
Spin-state shift (%) ([1]; listed as 4-hydroxyphenylacetic acid): 17 ± 1%
Compound: O=C(O)Cc1ccc(O)cc1 [4-Hydroxyphenylacetic acid]

Kd [1]: 73 ± 6 µM
Spin-state shift (%) [1]: 26 ± 3%
Spin-state shift (%) ([1]; listed as 4-methoxyacetophenone): 26 ± 3%
Compound: COc1ccc(C(C)=O)cc1 [4-Methoxyacetophenone]
product formation with NADH as electron donor ([2]; 4-hydroxyacetophenone product, NADH): no product was observed
Coupling (NADPH) ([2]; 25 °C): n.q
Coupling (NADPH) ([2]; 45 °C, listed as 4-Methoxy acetophenone): 24 ± 5%
Coupling (NADPH) ([2]; 45 °C, listed as 4-methoxyacetophenone): 24 ± 5%
NADH consumption rates ([3]; 25 °C): 2 ± 1 µM (µM^−1 P450) min^−1
NADH consumption rates (100% FMN rates) ([3]; 25 °C): ~6 µM (µM^−1 P450) min^−1
NADH consumption rates ([3]; 45 °C): 3 ± 1 µM (µM^−1 P450) min^−1
NADPH consumption rates ([3]; 45 °C): 1 ± 1 µM (µM^−1 P450) min^−1
NADH consumption rates (100% FMN rates) ([3]; 45 °C): ~9 µM (µM^−1 P450) min^−1
NADPH consumption rates (100% FMN rates) ([3]; 45 °C): ~3 µM (µM^−1 P450) min^−1

Km ([3]; 25 °C): 60 ± 15 µM
Compound: NC(=O)C1=CN([C@@H]2O[C@H](COP(=O)(O)OP(=O)(O)OC[C@H]3O[C@@H](n4cnc5c(N)ncnc54)[C@H](O)[C@@H]3O)[C@@H](O)[C@H]2O)C=CC1 [NADH, reference compound]
kcat of nicotinamide cofactor oxidation [3, 5]: 0.65 ± 0.067 s⁻¹

Compound: O=C(O)Cc1ccccc1 [Phenylacetic acid]
Kd [1]: 39 ± 11 µM
Spin-state shift (%) [1]: 34 ± 6%
Spin-state shift (%) ([1]; listed as phenylacetic acid): 34 ± 6%

Km ([3]; 25 °C): 4.1 ± 0.3 µM
fold lower KM compared to NADH [3, 5]: 15 fold
Km [4]: 1.2 ± 0.1 µM
Compound: NC(=O)C1=CN([C@@H]2O[C@H](COP(=O)(O)OP(=O)(O)OC[C@H]3O[C@@H](n4cnc5c(N)ncnc54)[C@H](OP(=O)(O)O)[C@@H]3O)[C@@H](O)[C@H]2O)C=CC1 [NADPH, reference compound]
kcat of nicotinamide cofactor oxidation [3, 5]: 0.217 ± 0.017 s⁻¹
kcat for NADPH [4]: 0.0683 ± 0.0017 s⁻¹

Kd [1]: 0.4 ± 0.2 µM
Spin-state shift (%) [1]: 90 ± 5%
Spin-state shift (%) ([1]; listed as 3-(2-Hydroxyphenyl)propionic acid (HPPA)): 90 ± 5%
Compound: O=C(O)CCc1ccccc1O [HPPA, 3-(2-hydroxyphenyl)propionic acid]
Coupling (NADPH) ([2]; 25 °C): 15 ± 2%
Coupling (NADH) ([2]; 45 °C, product formed to NADH consumed): 15 ± 9%
Coupling (NADPH) ([2]; 45 °C): 26 ± 1%
NADH consumption rates ([3]; 25 °C): 31 ± 3 µM (µM^−1 P450) min^−1
NADPH consumption rates ([3]; 25 °C): 11 ± 1 µM (µM^−1 P450) min^−1
NADPH consumption rates (100% FMN rates) ([3]; 25 °C): ~33 µM (µM^−1 P450) min^−1
fold increase of NADH oxidation rate ([3]; 45 °C compared to 25 °C): 2.4 fold
fold increase of NADPH oxidation rate ([3]; 45 °C compared to 25 °C): sixfold
NADH consumption rates ([3]; 45 °C): 73 ± 2 µM (µM^−1 P450) min^−1
NADPH consumption rates ([3]; 45 °C): 65 ± 3 µM (µM^−1 P450) min^−1
NADH consumption rates (100% FMN rates) ([3]; 45 °C): ~221 µM (µM^−1 P450) min^−1
NADPH consumption rates (100% FMN rates) ([3]; 45 °C): ~196 µM (µM^−1 P450) min^−1

Kd [1]: 43 ± 6 µM
Spin-state shift (%) [1]: 25 ± 2%
Spin-state shift (%) ([1]; listed as salicylic acid): 25 ± 2%
Compound: O=C(O)c1ccccc1O [Salicylic acid]
